Laboratory results as given in US20220127297A1, “Novel Antibacterial 3"-Derivatives Of 4,6-Disubstituted 2,5-Dideoxystreptamine Aminoglycoside Antibiotics” (AGILeBiotics B.V., priority 2018, published 2022).
Converted amounts (≈) assume the structure as drawn. Read-outs that look alike come from different tables or passages of the source.

Key:
K. pneumoniae DSM 26371 = test: MIC 50, broth micro-dilution, DSM strains; type: cell-based, Klebsiella pneumoniae
Source text: (§1) 3.2 Against Selected Bacteria of the ESKAPE Panel and Enterococcus faecalis (DSM Strains)
(§2) Tested reference compounds. Amikacin sulfate (Cat. No. 01693, Chem-Impex), Gentamicin sulfate (Cat. No. G4918, Sigma Aldrich).
(§3) Microbial strains. Enterococcus faecalis DSM 2570, Klebsiella pneumoniae DSM 26371, Acinetobacter baumannii DSM 105126, Enterobacter cloacae 3MRGN (clinical bronchial aspirate isolate).
(§4) Culture media and equipment. BBL™ Mueller Hinton Broth 2 (Lot. BCBW1143, Cat. No. 70192, Sigma); Trypcase Soy Blood-agar plates (Cat. No. 43001, Biomérieux); Cryoinstant (contains 15% glycerol; Cat. No. 822070ZA, VWR International); GasPak™ EZ Standard Incubation Container (Cat. No. 260671, Becton Dickinson); GasPak™ EZ Campy Container System Sachets (Cat. No. 260680, Becton Dickinson); 96-well deep well plate, 1 mL (Cat. No. 0030506.200, Eppendorf); Plate lid (Cat. No. 0030131.525, Eppendorf); 96-well plate, F-bottom (Cat. No. 260860, Nunc); Incubator (Sartorius Certomat BS-1); Laminar flow (Heraeus HS12); UV/VIS meter (Perkin Elmer Lambda Bio+); Platereader (Tecan Infinite M200 Pro).
(§5) Compound preparation. Compounds were prepared in MH2 media at a concentration of 5 mM and stored at 4° C. For testing, solutions of 128 μM were prepared in MH2, for tests against E. faecalis a solution of 512 μM was prepared. Out of these working solutions, 400 μL was transferred to wells in the first column of 96-well deep well plates. Each compound was transferred in triplicate. Plates were previously filled with 200 μL of MH2 media in all wells except for the wells in the first column. After compound and antibiotic addition, the compounds were serial two-fold diluted by transferring 200 μL from the first to the second column, then from the second to the third column and so on. Finally, 200 μL was removed from the last column.
(§6) Inoculum preparation. Microorganisms used were all revived from 15% glycerol storage in Croinstant tubes at −28° C. by plating them on blood agar plates. A. baumanni, and E. cloacae were grown aerobically at 37° C., E. faecalis was grown microaerophilically at 37° C., and K. pneumoniae was grown aerobically at 37° C. Plates were stored at 4° C. for up to two weeks, after which new plates were prepared from −28° C. A single colony was inoculated in MH2 media and grown at 37° C. and 200 rpm to an optical density (measured by UV/Vis spectroscopy) of 0.6-0.8 at 600 nm. Out of these suspensions, actual inoculums were prepared by diluting them to an optical density of 0.1 in MH2 media. From these inoculums, 200 μL was transferred to each well, resulting in a final compound concentration range of 64 μM-31.3 nM for, K. pneumoniae, A. baumanni, and E. cloacae, and 256 μM-125 nM for E. faecalis. Plates inoculated with E. faecalis were placed inside a GasPak™ Container System with GasPak™ Campy Container System sachets. All plates were incubated at 200 rpm for 18 h under the microorganism culturing conditions mentioned above.
(§7) MIC determination. After 18 h of growth, 200 μL was transferred to a 96-well F-bottom plate. The optical density was determined by a plate reader at 600 nm, with 10 s shaking before reading. Triplicate measurements were averaged, and a growth curve was plotted in Excel. The first column in which the growth reached half the value of maximum growth was determined as the MIC50 value for that particular compound.
(§8) MIC50. The MIC50 of a compound was assigned at which the bacterial growth reached half the value of maximum growth.

A. baumannii DSM 105126 = test: MIC 50, broth micro-dilution, DSM strains; type: cell-based, Acinetobacter baumannii
Source text: as §1, §2, §3, §4, §5, §6, §7, §8

[1] = Klebsiella pneumoniae, DSM26371, K. pneumoniae DSM 26371, read-out: MIC 50
[2] = Acinetobacter baumannii, DSM105126, read-out: MIC 50

| Structure (SMILES) | MIC50 (K. pneumoniae DSM 26371; K. pneumoniae DSM 26371) | MIC50 (A. baumannii DSM 105126) | MIC50 (K. pneumoniae DSM 26371; [1]) | MIC50 (A. baumannii DSM 105126; [2]) |
| --- | --- | --- | --- | --- |
| NCC[C@H](O)C(=O)N[C@@H]1C[C@H](N)[C@@H](O[C@H]2O[C@H](CN)[C@@H](O)[C@@H](O)[C@H]2O)[C@H](O)[C@H]1O[C@H]1O[C@H](CO)[C@@H](O)[C@H](N)[C@H]1O [ABX3002, 3′Epi-KanaA-AHB] | 8 µM (≈ 4.68 µg/mL) | 2 µM (≈ 1.17 µg/mL) | – | – |
| N=C(N)NC1[C@@H](O)C(OC2[C@@H](F)[C@H](O[C@H]3OC(CN)[C@@H](O)[C@H](O)C3O)C(N)C[C@H]2NC(=O)[C@@H](O)CCN)O[C@H](CO)[C@H]1O (stereo partly drawn) [ABX3003, 3′epi-KanaA-AHB-F-Gua] | – | – | 0.5 µM (≈ 0.315 µg/mL) | 0.0625 to 0.125 µM (≈ 0.0394 to 0.0787 µg/mL) |
| NCCC(O)C(=O)NC1CC(N)C(OC2OC(CN)C(O)C(O)C2O)C(F)C1OC1OC(CO)C(O)C(N)C1O (stereo not drawn) [ABX3005, 3′Epi-KanaA-AHB-F] | 1 µM (≈ 0.588 µg/mL) | 1 µM (≈ 0.588 µg/mL) | – | – |
| NCCC(O)C(=O)NC1CC(N)C(OC2OC(CN)C(O)C(O)C2N)C(O)C1OC1OC(CO)C(O)C(N)C1O (centres unmarked) [ABX4001, KanaB-AHB] | 0.5 µM (≈ 0.292 µg/mL) | 0.5 µM (≈ 0.292 µg/mL) | – | – |
| NCC[C@H](O)C(=O)N[C@@H]1CC(N)[C@@H](O[C@H]2OC(CN)[C@@H](O)[C@@H](O)C2N)[C@H](O)C1OC1O[C@H](CO)[C@@H](O)C(N)[C@H]1O (stereo partly drawn) [ABX4002, 3′Epi-KanaB-AHB] | 1 µM (≈ 0.585 µg/mL) | 0.5 µM (≈ 0.292 µg/mL) | – | – |
| NCC[C@H](O)C(=O)N[C@@H]1CC(N)[C@@H](O[C@H]2OC(CN)[C@@H](O)[C@@H](O)C2N)[C@H](F)C1OC1O[C@H](CO)[C@@H](O)C(N)[C@H]1O (stereo partly drawn) [ABX4003, 3′Epi-KanaB-AHB-F] | 0.5 µM (≈ 0.293 µg/mL) | 0.5 µM (≈ 0.293 µg/mL) | – | – |
| N=C(N)NC1[C@@H](O)C(OC2[C@@H](F)[C@H](O[C@H]3OC(CN)[C@@H](O)[C@H](O)C3N)C(N)C[C@H]2NC(=O)[C@@H](O)CCN)O[C@H](CO)[C@H]1O (stereo partly drawn) [ABX4004, 3′epi-KanaB-AHB-F-Gua] | 0.25 µM (≈ 0.157 µg/mL) | 0.125 µM (≈ 0.0786 µg/mL) | – | – |
| N=C(N)N[C@@H]1[C@@H](O)[C@@H](O[C@@H]2[C@@H](O)[C@H](O[C@H]3O[C@H](CN)[C@@H](O)[C@@H](O)[C@H]3N)[C@@H](N)C[C@H]2NC(=O)[C@@H](O)CCN)O[C@H](CO)[C@H]1O [ABX4005, 3′Epi-KanaB-AHB-Gua] | 1 to 2 µM | 0.5 µM (≈ 0.313 µg/mL) | – | – |
| N=C(N)NC1[C@@H](O)C(OC2[C@@H](F)[C@H](O[C@H]3OC(CN)[C@@H](O)[C@H](O)C3N)C(N)C[C@H]2NC(=O)[C@@H](O)CCN)O[C@H](CO)[C@H]1O (some centres unmarked) [ABX4006, KanaB-AHB-F-Gua] | – | – | 0.125 µM (≈ 0.0786 µg/mL) | 0.125 µM (≈ 0.0786 µg/mL) |
| NCCC(O)C(=O)NC1CC(N)C(OC2OC(CN)C(O)C(O)C2N)C(F)C1OC1OC(CO)C(O)C(N)C1O (centres unmarked) [ABX4007, KanaB-AHB-F] | 0.5 µM (≈ 0.293 µg/mL) | 0.5 µM (≈ 0.293 µg/mL) | – | – |
| N=C(N)NC1[C@@H](O)C(OC2[C@@H](O)[C@H](O[C@H]3OC(CN)[C@@H](O)[C@H](O)C3N)C(N)C[C@H]2NC(=O)[C@@H](O)CCN)O[C@H](CO)[C@H]1O (some centres unmarked) [ABX4009, KanaB-AHB-Gua] | 1 µM (≈ 0.627 µg/mL) | 0.5 µM (≈ 0.313 µg/mL) | – | – |
| NCC[C@H](O)C(=O)N[C@@H]1CC(N)[C@@H](O[C@H]2OC(CN)[C@@H](O)CC2N)[C@H](O)C1OC1O[C@H](CO)[C@@H](O)C(N)[C@H]1O (some centres unmarked) [ABX5004, Tobra-AHB] | 1 µM (≈ 0.569 µg/mL) | 0.5 µM (≈ 0.284 µg/mL) | – | – |
| N=C(N)NC1[C@@H](O)C(OC2[C@@H](O)[C@H](O[C@H]3OC(CN)[C@@H](O)CC3N)C(N)C[C@H]2NC(=O)[C@@H](O)CCN)O[C@H](CO)[C@H]1O (some centres unmarked) [ABX5005, Tobra-AHB-Gua] | 0.25 µM (≈ 0.153 µg/mL) | 0.25 µM (≈ 0.153 µg/mL) | – | – |
